Test results taken from US20220226311A1, “PROCASPASE-3 ACTIVATION AND IMMUNOTHERAPY FOR TREATMENT OF CANCER” (The Board of Trustees of the University of Illinois, priority 2019, published 2022).

Legend:
[1] = Secondary malignancies in pet dogs with cancer treated with PAC-1; assay type: in vivo; details: pet dogs treated >6 months, >12 months after completion of therapy
Description: (§1) It should be noted that cancer drugs can induce secondary cancers, for example, almost ⅓ of patients treated with single-agent vemurafenib develop secondary malignancies; but to date this has not been observed for PAC-1. Just as PAC-1 induces PC-3 cleavage selectively in cancer cells, the resulting caspase-3 activity should lead to selective MLH1 cleavage in cancer cells. It is worth noting that Turcot syndrome, a constitutional mismatch repair deficiency (CMMRD) cancer prone syndrome, is correlated with biallelic germline mutations in MMR genes, resulting in the development of GBM at a young age. Turcot syndrome and other CMMRD syndromes (i.e. Lynch Syndrome) point to the importance of maintaining MMR protein function, implying that inducing MLH1 cleavage/loss in a non-targeted, pan-organism fashion is not a viable therapeutic strategy. However, the strategy with PAC-1 leverages the well-known overexpression of PC-3 in cancer cells (including GBM) resulting in targeted MLH1 cleavage in tumors, leaving MMR proteins in normal cells unperturbed and operating.

[2] = combination with immune cytokine TRAIL, in culture; cited from earlier work
B16F10 cells = test: Tumor infiltrating lymphocytes (CD3 staining) in subcutaneous B16F10 syngeneic model; assay type: in vivo, C57BL/6 mice; details: single-agent PAC-1 100 mg/kg IP x2 x14 days
Method: (§2) FIG. 4. PAC-1 treatment of mice with syngeneic tumors increases the numbers of tumor infiltrating lymphocytes. A) C57BL/6 mice with orthotopic transplant of GL261 neurospheres. Tumors were allowed to establish for 10 days, then mice (n=3/group) were treated with or without PAC-1 (100 mg/kg PO×10 days), then sacrificed. Tumors were stained for CD3 (brown) to identify T cell TILs. Data presented as average CD3^+ per 4 HPF/mouse. Magnification 100×. B) C57BL/6 mice with subcutaneous transplant of B16F10 cells. Tumors were allowed to establish for 7 days, then mice (n=8/group) were treated with or without PAC-1 (100 mg/kg IP×2×14 days), then sacrificed. Tumors were stained for CD3 (brown) to identify T cell TILs. Data presented as average CD3^+ per 10 HPF/mouse. Magnification 100×.

clinical = details: human, in vivo, 450 mg
CT-26_WT cells = test: CT-26_WT subcutaneous tumor model; assay type: in vivo, BALB/c mice; details: sc CT-26_WT; PAC-1 100 mg/kg i.p., anti-PD-1 10 mg/kg, 2 or 4 doses; vs vehicle+anti-IgG
Method: FIG. 9. Growth of CT-26_WT in BALB/c mice after 2 doses (A) versus 4 doses (B). Open circle=vehicle+anti-IgG2A antibody; square=PAC-1 (100 mg/kg)+anti-IgG2a antibody; triangle=vehicle+anti-PD-1 mAb; inverted triangle=PAC-1 (100 mg/kg)+anti-PD-1 mAb.
FIG. 10. Analysis of treatment of BALB/c mice with PAC-1 and anti-PDL1 mAb. Open circle=vehicle+anti-IgG2A antibody; square=PAC-1 (100 mg/kg)+anti-IgG2a antibody; triangle=vehicle+anti-PD-1 mAb; inverted triangle=PAC-1 (100 mg/kg)+anti-PD-1 mAb.
FIG. 8 illustrates the development of a CT-26_WT subcutaneous disease model in BALB/c mice. At day 0, BALB/c mice were injected subcutaneously with 1×10^6 CT-26_WT cells. At various day intervals, selected mice were injected (i.p.) with an empty vehicle, PAC-1 (100 mg/kg), anti-PD-1 antibody (10 mg/kg; 2 doses), anti-PD-1 antibody (10 mg/kg; 4 doses), or a combination of PAC-1 (100 mg/kg) and anti-PD-1 antibody (10 mg/kg;) as shown in Table 1.

cancer cells [3] = test: Transcript profile of cancer cells treated with PAC-1; assay type: cell-based
Description: (§3) Increased immune cell infiltration in PAC-1 treated GL261 tumors. […] 3) PAC-1 is efficacious in in vivo settings with intact immune systems, including syngeneic mouse (EL4, K7M2, GL261) (FIG. 7) and rat (9L) models, and canine cancer patients.

PMBCs = details: cited from earlier work
cancer cells [4] = test: DNA damage in cancer cells; assay type: cell-based
Description: as §3

HT-29 cells = test: Western blot for MLH1 and PARP-1 cleavage after PAC-1 treatment of cell lines; assay type: cell-based
Method: FIG. 3. PAC-1 treatment leads to MLH1 cleavage in the absence of Apoptotic Death Markers. Cell lines were incubated with indicated concentrations of PAC-1 for 72 hours, followed by western blot analysis for MLH1 protein level, as well as PARP-1, cleaved PARP-1 (c-PARP-1 is an apoptosis maker), and beta-actin (loading control).
Results. MSS/MSI status of colon cancer cell lines have been reported (Ahmed, D., et al., Oncogenesis 2013, 2, e71), allowing for selection of HT-29, an MSS colon cancer cell line. To date, studies that have focused on the cleavage of MLH1 have utilized strategies that broadly induce high levels of apoptotic cell death (i.e., with staurosporine). HT-29 cells were treated with sub-lethal PAC-1.

[5] = Myelosuppression in animals and humans, including IND-enabling rat and dog studies; assay type: in vivo, mice, rats, dogs, or humans; details: also at very high doses in IND-enabling rat and dog studies
Description: as §3

plasma cytokines = test: Cytokine array of plasma from mice treated with PAC-1; assay type: in vivo, BALB/c mice; details: PAC-1 x5 doses, pooled samples from 2-3 mice
Method: FIG. 12. A) Example treatment protocol. B) Cytokine array of plasma from BALB/c mice treated with PAC-1.
[…] were centrifuged at 8000 g for 10 mins, and plasma/supt was transferred to new tubes. Cytokine array was performed on 4 groups using pooled samples from 2-3 mice:
Signals were quantified using ImageJ. Data was normalized by calculating the ratio of PAC-1/vehicle mean pixel density as shown in the plot.

[6] = test system: lung tumor microenvironment; test: Immune cell populations in lungs, PBMC and spleen after tumor challenge; assay type: in vivo, BALB/c mice
Description: FIG. 13. Analysis of neutrophil and macrophage populations after treatment with PAC-1 14 days post-tumor challenge in lungs, PBMC, and spleen. Open circle=vehicle+anti-IgG2A antibody; square=PAC-1+anti-IgG2a antibody; triangle=vehicle+anti-PD-1 mAb; inverted triangle=PAC-1+anti-PD-1 mAb.
FIG. 14. Analysis of T-cells, B-cells, and NK cell populations in the lungs, PBMC, and spleen of BALB/c mice 26 days post combinatorial PAC-1 and anti-PD-1 treatment. Open circle=vehicle+anti-IgG2A antibody; square=PAC-1+anti-IgG2a antibody; triangle=vehicle+anti-PD-1 mAb; inverted triangle=PAC-1+anti-PD-1 mAb.
FIG. 15. PD-L1 expression on the surface of dendritic cells and CD45^− tumor cells 26 days post-tumor challenge in lungs, PBMC, and spleen of BALB/c mice. Open circle=vehicle+anti-IgG2A antibody; square=PAC-1+anti-IgG2a antibody; triangle=vehicle+anti-PD-1 mAb; inverted triangle=PAC-1+anti-PD-1 mAb.

GL261 neurospheres = test: Tumor infiltrating lymphocytes (CD3 staining) in orthotopic GL261 syngeneic model; assay type: in vivo, C57BL/6 mice; details: single-agent PAC-1 100 mg/kg PO x 10 days
Method: as §2

[7] = Tolerability of PAC-1 in the human clinical trial; assay type: in vivo; details: patients taking PAC-1 for over 10 months (one at 450 mg daily)
Description: as §1

[8] = single-agent treatment; cited from earlier work
[9] = HT-29 cells, sub-lethal PAC-1, 72 hours

Structure (SMILES)	Secondary malignancies [1]	Extrinsic cell death [2]	Number of TILs (CD3+ cells) (B16F10 cells)	Cmax (clinical) [µM]	Tumor growth (CT-26_WT cells)	Markers associated with resistance to anti-PD-1 therapy (IPRES) (cancer cells [3])	Upregulated genes in transcript profile (cancer cells [3])	Toxicity to PBMCs (PMBCs)	DNA damage (cancer cells [4])	Selectivity of MLH1 cleavage, cancer cell lines vs normal cell line HFF-1 (HT-29 cells; 72 hours)	PARP-1 cleavage (apoptosis marker) (HT-29 cells; [9])	PC-3 activation and MLH1 cleavage (HT-29 cells; [9])	Myelosuppression [5]	Plasma cytokines (ratio PAC-1/vehicle mean pixel density) (plasma cytokines)	Neutrophils and macrophages in lung tumor microenvironment ([6]; day 14 post-tumor challenge)	Macrophages and dendritic cells in tumor microenvironment ([6]; day 26)	Number of TILs (CD3+ cells) (GL261 neurospheres)	Ill effects on prolonged dosing [7]	Fraction of patients developing secondary malignancies [8]
C=CCc1cccc(/C=N/NC(=O)CN2CCN(Cc3ccccc3)CC2)c1O [PAC-1]	remain free of secondary malignancies	can enhance extrinsic cell death in culture	increased the number of TILs	7.8	large variation in controlling sc CT-26_WT growth	no upregulation	upregulation of key genes including TNFα, innate immune system agonists IL-1β and IL-8	minimal toxicity to PMBCs	causes DNA damage selectively in cancer cells	cancer cell specific MLH1 cleavage	little to no PARP-1 cleavage	induced PC-3 activation and MLH1 cleavage	has not been observed to induce myelosuppression	increase in cytokines that promote macrophage differentiation as well as B-cell and T-cell proliferation	appear to increase	have decreased	increased the number of TILs	no ill effects	–
CCCS(=O)(=O)Nc1ccc(F)c(C(=O)c2c[nH]c3ncc(-c4ccc(Cl)cc4)cc23)c1F [vemurafenib]	–	–	–	–	–	–	–	–	–	–	–	–	–	–	–	–	–	–	⅓
